The text below walks through data of ChEMBL document CHEMBL6103651, “Total Syntheses, Absolute Configuration, and Cytotoxicity Evaluation of Ugonins L, S, U, and Z from the Rhizomes of Helminthostachys zeylanica” (J Nat Prod, 2025).

For one data set, the system named is NCI-H460. The data set is described as follows: Cytotoxicity against human NCI-H460 cells assessed as cell growth inhibition incubated for 6 hrs by SRB assay. In kind it is functional, cell-based. Particulars: NCI-H460, 6 h. (Sulforhodamine B stains cellular protein and so reports cell mass.)
The next data set has as its system CCRF-CEM. The data set is described as follows: Cytotoxicity against human CEM cells assessed as cell growth inhibition incubated for 6 hrs by SRB assay. In kind it is functional, cell-based.
A further data set has as its system MCF7. Nature of the data set: Cytotoxicity against human MCF7 cells assessed as cell growth inhibition incubated for 6 hrs by SRB assay. Particulars: MCF7, 6 h. In kind it is functional, cell-based.
A short description of data set [1]: Cytotoxicity against fibroblasts (unknown origin) assessed as cell growth inhibition incubated for 6 hrs by SRB assay. In kind it is toxicity, cell-based, Fibroblast.
The test system of another data set is HT-29. Nature of the data set: Cytotoxicity against human HT-29 cells assessed as cell growth inhibition incubated for 6 hrs by SRB assay. In kind it is functional, cell-based. Particulars: HT-29, 6 h.

In the case of `CC1(C)CCC[C@]2(C)Oc3cc4oc(-c5ccc(O)c(O)c5)cc(=O)c4c(O)c3C[C@H]12`, the IC50 – broadly, the concentration that gives 50% inhibition – in the data set with NCI-H460 is 2.2 µM; with CCRF-CEM it was 4.2 µM; in the data set with MCF7 it was 16.7 µM; with HT-29 it was 21.9 µM. Moreover, the IC50 at 6 h in data set [1] was found to be 24.5 µM.

With `COc1cccc2c1C(=O)c1c(O)c3c(c(O)c1C2=O)C[C@@](O)(C(=O)CO)C[C@@H]3O[C@H]1C[C@H](N)[C@H](O)[C@H](C)O1` [DOXORUBICIN], the IC50 in the data set on NCI-H460 was 0.01 µM; in the data set with CCRF-CEM, 0.11 µM; with MCF7 it was 0.54 µM; in the data set with HT-29, 0.23 µM. Moreover, the IC50 at 6 h in data set [1] worked out at 56.3 µM.

Turning to `CC1(C)CCC[C@@]2(C)Oc3cc(O)c4c(=O)cc(-c5ccc(O)c(O)c5)oc4c3C[C@@H]12`, the IC50 in the data set with NCI-H460 was found to be 18.3 µM; in the data set on CCRF-CEM, 16.4 µM; in the data set on MCF7, 28.2 µM; in the data set on HT-29, 27.5 µM. Also, the IC50 at 6 h in data set [1] amounted to 27.5 µM.

On to `CC1(C)CCC[C@]2(C)Oc3cc(O)c4c(=O)cc(-c5ccc(O)c(O)c5)oc4c3C[C@H]12`, for which the concentration for half-maximal inhibition (IC50) in the data set on NCI-H460 came out at 17.5 µM; in the data set with CCRF-CEM, 1.7 µM; with MCF7, 26 µM; with HT-29, 33.2 µM. The IC50 at 6 h in data set [1] stood at 33.2 µM.

With `CC1(C)CCC[C@]2(C)Oc3c(c(O)cc4oc(-c5ccc(O)c(O)c5)cc(=O)c34)C[C@@H]12`, the IC50 in the data set on CCRF-CEM turned out to be 4.2 µM; in the data set on MCF7, 6.5 µM; with HT-29 it was 24.5 µM. For the same compound, the IC50 at 6 h in data set [1] is 24.5 µM.

Turning to `CC1(C)CCC[C@]2(C)Oc3c(c(O)cc4oc(-c5ccc(O)c(O)c5)cc(=O)c34)C[C@H]12`, the values for the IC50 in the data set on CCRF-CEM, in the data set on MCF7 and in the data set on HT-29 were 5.9 µM, 18.9 µM and 34.1 µM, respectively. Also, the 50% inhibitory concentration (IC50) at 6 h in data set [1] was 34.1 µM.

`CC1(C)CCC[C@@]2(C)Oc3cc4oc(-c5ccc(O)c(O)c5)cc(=O)c4c(O)c3C[C@@H]12`: the half-maximal inhibitory concentration (IC50) in the data set with NCI-H460 is 7.1 µM; with CCRF-CEM, 5.2 µM; in the data set on MCF7, 19.1 µM; in the data set on HT-29 it was 37.1 µM. The IC50 at 6 h in data set [1] stood at 37.1 µM.

`CC1(C)CCC[C@@]2(C)Oc3c(c(O)cc4oc(-c5ccc(O)c(O)c5)cc(=O)c34)C[C@@H]12` [UGONIN S]: the IC50 was 6.2 µM with CCRF-CEM, 8.8 µM with MCF7 and 21.9 µM in the data set with HT-29. Moreover, the IC50 at 6 h in data set [1] was found to be 21.9 µM.

With `CC1(C)CCC[C@@]2(C)Oc3c(c(O)cc4oc(-c5ccc(O)c(O)c5)cc(=O)c34)C[C@H]12`, the IC50 is 4.8 µM in the data set on CCRF-CEM, 17.7 µM with MCF7 and 36 µM in the data set on HT-29. In addition, the IC50 at 6 h in data set [1] amounted to 36 µM.
